Laboratory results reported in PubChem BioAssay (NCI).
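GI50 = concentration required for 50% inhibition of growth. TGI is the concentration that stops growth completely.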

Legend:
Experiment in all cases: NCI-60 cell line screen, 384-well format
[1] = system: 786-0 renal
[2] = system: A498 renal
[3] = system: A549 NSCLC
[4] = system: ACHN renal
[5] = system: BT-549 breast
[6] = system: CAKI-1 renal
[7] = system: DU-145 prostate
[8] = system: HCT-116 colon
[9] = system: HL-60(TB) leukemia
[10] = system: HOP-92 NSCLC
[11] = system: HS 578T breast
[12] = system: HT29 colon
[13] = system: K-562 leukemia
[14] = system: KM12 colon
[15] = system: M14 melanoma
[16] = system: MCF7 breast
[17] = system: MDA-MB-231 breast
[18] = system: MDA-MB-435 melanoma
[19] = system: MOLT-4 leukemia
[20] = system: NCI-H460 NSCLC
[21] = system: NCI-H522 lung
[22] = system: OVCAR-3 ovarian
[23] = system: OVCAR-4 ovarian
[24] = system: OVCAR-5 ovarian
[25] = system: PC-3 prostate
[26] = system: SF-268 CNS
[27] = system: SK-MEL-2 melanoma
[28] = system: SK-MEL-28 melanoma
[29] = system: SN12C renal
[30] = system: SNB-19 CNS
[31] = system: SNB-75 CNS
[32] = system: SR leukemia
[33] = system: SW-620 colon
[34] = system: TK-10 renal
[35] = system: UACC-62 melanoma

O=C(O)c1ccc2c(c1)CCCC(c1ccc(Cl)cc1Cl)=C2c1ccc(O[C@H]2CCN(CCCF)C2)cc1
GI50 [1]: 12.7 µM
TGI [1]: 25.3 µM
GI50 [2]: 6.94 µM
TGI [2]: 19.6 µM
GI50 [3]: 9.67 µM
GI50 [4]: 11.9 µM
TGI [4]: 24.3 µM
GI50 [5]: 12 µM
TGI [5]: 24.3 µM
GI50 [6]: 13 µM
TGI [6]: 25.7 µM
GI50 [7]: 13.6 µM
TGI [7]: 26.6 µM
GI50 [8]: 5.87 µM
TGI [8]: 18.8 µM
GI50 [9]: 4.44 µM
TGI [9]: 16 µM
GI50 [10]: 12.3 µM
TGI [10]: 24.8 µM
GI50 [11]: 3.36 µM
TGI [11]: 18.1 µM
GI50 [12]: 12.2 µM
TGI [12]: 24.7 µM
GI50 [13]: 7.96 µM
TGI [13]: 20.7 µM
GI50 [14]: 11.6 µM
TGI [14]: 24.2 µM
GI50 [15]: 11.1 µM
TGI [15]: 23.1 µM
GI50 [16]: < 0.01 µM
GI50 [17]: 14.8 µM
TGI [17]: 28.1 µM
GI50 [18]: 12.2 µM
TGI [18]: 24.6 µM
GI50 [19]: 3.61 µM
TGI [19]: 14.2 µM
GI50 [20]: 10.3 µM
TGI [20]: 22.2 µM
GI50 [21]: 10.3 µM
TGI [21]: 21.9 µM
GI50 [22]: 10.1 µM
TGI [22]: 21.8 µM
GI50 [23]: 11.3 µM
TGI [23]: 23.5 µM
GI50 [24]: 15.2 µM
TGI [24]: 28.6 µM
GI50 [25]: 10.2 µM
TGI [25]: 21.9 µM
GI50 [26]: 14.8 µM
TGI [26]: 28.2 µM
GI50 [27]: 17.4 µM
TGI [27]: 31.2 µM
GI50 [28]: 11.7 µM
TGI [28]: 24 µM
GI50 [29]: 14.4 µM
TGI [29]: 27.5 µM
GI50 [30]: 13.1 µM
TGI [30]: 26 µM
GI50 [31]: 12.9 µM
TGI [31]: 25.6 µM
GI50 [32]: 2.92 µM
TGI [32]: 10.8 µM
GI50 [33]: 15.7 µM
TGI [33]: 29.4 µM
GI50 [34]: 12.5 µM
TGI [34]: 25.2 µM
GI50 [35]: 13.5 µM
TGI [35]: 26.3 µM
